Key:
[1] = tested on: mouse cervical cancer cell line U14; experiment: Mice U14 subcutaneous model, complex combined with chemotherapy; type: in vivo, C57 female mice; conditions: U14 sc
Procedure: C57 female mice aged 6-8 weeks were raised. The mouse cervical cancer cell line U14 cultured to the logarithmic growth phase was prepared into a cell suspension and the cell density was 2×10^7/ml. Experimental animals were subcutaneously injected on the right back, with an injection system of 100 μl per mouse. When the tumor could be palpated (tumor volume is about 4 mm×4 mm×3 mm, i.e. the 5th day after inoculation), the mice were randomly divided into 6 groups, and administrated every 3 days for a total of 8 times according to the grouping and treatment scheme in Table 16. The tumor volume was measured every three days. After administration for 8 times, the mice were killed and subcutaneous tumors were dissected for examination.
Wherein, the administration volume is 100 μl per mouse, DDP is intraperitoneally administrated once a week. DDP is Cisplatin and LP is pMVA-1/DOTAP complex.

A549 cells [2] = experiment: ROS level by H2DCF-DA fluorescence probe, flow cytometry; type: cell-based
Procedure: (1) Sample loading: […] (3) […] CM-H2DCFDA fluorescent probe (made by Sigma) was added to the resuspended cells prepared in Step (2), incubated at 37° C. for 0.5 h, washed with PBS and resuspended; (4) The resuspended cells in Step (3) were tested with flow cytometry (Novocyte), and the test results were analyzed by Novoexpress software.

A549 cells [3] = experiment: Death ratio of A549 cells pretreated with NAC, flow cytometry; type: cell-based; conditions: pretreated with NAC before pMVA-1/DOTAP complex

In the case of `N.N.[Cl][Pt][Cl]` [Cisplatin], the “lymphocyte infiltration in tumor tissue” value [1] was “less common”, the “tumor volume vs NS group, DOTAP group and pMVA-1 group” value ([1]; Q3d x 8) was “significantly lower” and the tumor growth ([1]; Q3d x 8, Cisplatin ip once a week) was “slow tumor growth”.

For `OO` [H2O2], the “intracellular ROS level” value (A549 cells [2]; A549, 3 h, H2O2 at 200 μM, *P<0.05) was “increased significantly”.

With `CC(=O)N[C@@H](CS)C(=O)O` [NAC, N-Acetyl-L-cysteine] the “intracellular ROS level after NAC pretreatment” value (A549 cells [2]; A549 pretreated with 5 mM NAC before pMVA-1/DOTAP complex) was “decreased significantly” and the “death ratio of A549 cells” value (A549 cells [3]) was “significantly reduced”.
